Test results reported in ChEMBL document CHEMBL4049381 (Medchemcomm, 2016).

Columns and labels:
[1] = target: T1, Solute carrier organic anion transporter family member 2B1 (Homo sapiens, UniProt O94956, H618Q); test: Drug uptake assessed as human OATP2B1 H618Q mutant expressed in Xenopus laevis oocyte mediated drug accumulation at 0.003 uM after 30 mins by LC-MS/MS method relative to wild type protein; assay type: ADME; details: 0.5 h
[2] = target: T2, Solute carrier organic anion transporter family member 2B1 (Homo sapiens, UniProt O94956, H579Q); test: Drug uptake assessed as human OATP2B1 H579Q mutant expressed in Xenopus laevis oocyte mediated drug accumulation at 0.003 uM after 30 mins by LC-MS/MS method relative to wild type protein; assay type: ADME; details: 0.5 h
T2 sequence (O94956 whole entry T392I/H579Q): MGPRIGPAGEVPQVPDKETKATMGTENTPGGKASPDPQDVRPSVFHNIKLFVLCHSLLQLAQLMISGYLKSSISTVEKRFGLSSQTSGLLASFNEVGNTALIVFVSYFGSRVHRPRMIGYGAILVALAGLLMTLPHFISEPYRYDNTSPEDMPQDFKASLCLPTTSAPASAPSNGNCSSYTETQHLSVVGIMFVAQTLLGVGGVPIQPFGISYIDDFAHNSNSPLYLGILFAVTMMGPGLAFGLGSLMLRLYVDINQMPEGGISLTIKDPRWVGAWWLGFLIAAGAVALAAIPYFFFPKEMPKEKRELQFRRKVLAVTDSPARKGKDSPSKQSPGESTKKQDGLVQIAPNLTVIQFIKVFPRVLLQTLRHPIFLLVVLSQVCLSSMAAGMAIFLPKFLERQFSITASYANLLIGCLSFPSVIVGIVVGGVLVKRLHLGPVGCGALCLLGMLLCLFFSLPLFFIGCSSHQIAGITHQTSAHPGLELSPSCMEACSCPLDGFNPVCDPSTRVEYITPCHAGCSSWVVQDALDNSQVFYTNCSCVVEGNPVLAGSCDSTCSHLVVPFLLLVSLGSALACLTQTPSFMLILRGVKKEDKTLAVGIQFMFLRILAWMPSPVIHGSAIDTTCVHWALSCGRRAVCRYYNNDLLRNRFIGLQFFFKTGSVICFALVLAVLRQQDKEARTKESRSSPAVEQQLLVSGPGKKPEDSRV

[3] = target: T3, Solute carrier organic anion transporter family member 2B1 (Homo sapiens, UniProt O94956, R607A); test: Drug uptake assessed as human OATP2B1 R607A mutant expressed in Xenopus laevis oocyte mediated drug accumulation at 0.003 uM after 30 mins by LC-MS/MS method relative to wild type protein; assay type: ADME; details: 0.5 h
T3 sequence (O94956 whole entry T392I/R607A): as the sequence (O94956 whole entry T392I/H579Q) above, with Q579H, R607A counted along it

[4] = target: T4, Solute carrier organic anion transporter family member 2B1 (Homo sapiens, UniProt O94956); test: Drug uptake assessed as human OATP2B1 expressed in Xenopus laevis oocyte mediated drug accumulation per 30 mins per oocyte at 0.003 uM by LC-MS/MS method; assay type: ADME; details: 0.5 h
T4 sequence (O94956 whole entry): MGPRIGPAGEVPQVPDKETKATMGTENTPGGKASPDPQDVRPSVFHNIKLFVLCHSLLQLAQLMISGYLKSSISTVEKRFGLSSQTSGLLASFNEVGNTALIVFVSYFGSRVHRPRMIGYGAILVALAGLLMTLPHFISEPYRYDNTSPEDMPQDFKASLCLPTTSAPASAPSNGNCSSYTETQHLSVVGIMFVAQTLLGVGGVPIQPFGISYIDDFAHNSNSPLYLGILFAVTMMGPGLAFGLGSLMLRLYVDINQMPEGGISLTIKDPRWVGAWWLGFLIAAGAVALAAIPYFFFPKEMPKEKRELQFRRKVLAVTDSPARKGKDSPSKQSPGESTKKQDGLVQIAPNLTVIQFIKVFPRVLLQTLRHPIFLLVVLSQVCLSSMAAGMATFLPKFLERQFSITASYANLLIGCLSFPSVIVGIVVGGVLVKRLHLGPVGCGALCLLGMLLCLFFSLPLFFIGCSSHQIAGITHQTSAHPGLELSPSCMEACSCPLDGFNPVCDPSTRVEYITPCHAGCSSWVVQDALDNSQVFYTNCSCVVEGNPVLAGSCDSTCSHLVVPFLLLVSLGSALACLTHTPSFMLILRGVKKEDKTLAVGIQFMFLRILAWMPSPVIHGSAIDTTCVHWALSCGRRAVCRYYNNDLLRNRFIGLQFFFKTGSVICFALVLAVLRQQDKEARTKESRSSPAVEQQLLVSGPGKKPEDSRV

[5] = target: T3, Solute carrier organic anion transporter family member 2B1; test: Drug uptake assessed as human OATP2B1 R607A mutant expressed in Xenopus laevis oocyte mediated drug accumulation at 1 uM after 120 mins by LC-MS/MS method relative to wild type protein; assay type: ADME; details: 2 h
[6] = target: T4, Solute carrier organic anion transporter family member 2B1; test: Drug uptake assessed as human OATP2B1 expressed in Xenopus laevis oocyte mediated drug accumulation per 120 mins per oocyte at 1 uM by LC-MS/MS method; assay type: ADME; details: 2 h
[7] = target: T1, Solute carrier organic anion transporter family member 2B1; test: Drug uptake assessed as human OATP2B1 H618Q mutant expressed in Xenopus laevis oocytes mediated drug accumulation at 1 uM after 120 mins by LC-MS/MS method relative to wild type protein; assay type: ADME, cell-based; details: 2 h
[8] = target: T2, Solute carrier organic anion transporter family member 2B1; test: Drug uptake assessed as human OATP2B1 H579Q mutant expressed in Xenopus laevis oocyte mediated drug accumulation at 1 uM after 120 mins by LC-MS/MS method relative to wild type protein; assay type: ADME; details: 2 h
[9] = target: T4, Solute carrier organic anion transporter family member 2B1; test: Drug uptake assessed as human OATP2B1 expressed in Xenopus laevis oocyte mediated drug accumulation per 180 mins per oocyte at 1 uM by LC-MS/MS method; assay type: ADME; details: 3 h
[10] = target: T1, Solute carrier organic anion transporter family member 2B1; test: Drug uptake assessed as human OATP2B1 H618Q mutant expressed in Xenopus laevis oocyte mediated drug accumulation at 1 uM after 180 mins by LC-MS/MS method relative to wild type protein; assay type: ADME; details: 3 h
[11] = target: T3, Solute carrier organic anion transporter family member 2B1; test: Drug uptake assessed as human OATP2B1 R607A mutant expressed in Xenopus laevis oocyte mediated drug accumulation at 1 uM after 180 mins by LC-MS/MS method relative to wild type protein; assay type: ADME; details: 3 h
[12] = target: T2, Solute carrier organic anion transporter family member 2B1; test: Drug uptake assessed as human OATP2B1 H579Q mutant expressed in Xenopus laevis oocyte mediated drug accumulation at 1 uM after 180 mins by LC-MS/MS method relative to wild type protein; assay type: ADME; details: 3 h
[13] = system: C[C@]12CC[C@@H]3c4ccc(OS(=O)(=O)O)cc4CC[C@H]3[C@@H]1CCC2=O; test: Substrate activity at human OATP2B1 H579Q mutant high affinity site expressed in Xenopus laevis oocytes assessed as Km for transporter-mediated drug accumulation after 15 mins by Eadie-Hofstee plot method; assay type: ADME, cell-based
[14] = system: C[C@]12CC[C@@H]3c4ccc(OS(=O)(=O)O)cc4CC[C@H]3[C@@H]1CCC2=O; test: Substrate activity at human OATP2B1 H618Q mutant low affinity site expressed in Xenopus laevis oocytes assessed as Km for transporter-mediated drug accumulation after 15 mins by Eadie-Hofstee plot method; assay type: ADME, cell-based
[15] = system: C[C@]12CC[C@@H]3c4ccc(OS(=O)(=O)O)cc4CC[C@H]3[C@@H]1CCC2=O; test: Substrate activity at human OATP2B1 H618Q mutant high affinity site expressed in Xenopus laevis oocytes assessed as Km for transporter-mediated drug accumulation after 15 mins by Eadie-Hofstee plot method; assay type: ADME, cell-based
[16] = substrate: C[C@]12CC[C@@H]3c4ccc(OS(=O)(=O)O)cc4CC[C@H]3[C@@H]1CCC2=O; test: Substrate activity at human OATP2B1 high affinity site expressed in Xenopus laevis oocytes assessed as Km for transporter-mediated drug accumulation after 15 mins by Eadie-Hofstee plot method; assay type: ADME, cell-based
[17] = substrate: O=C(O)c1cc(/N=N/c2ccc(S(=O)(=O)Nc3ccccn3)cc2)ccc1O; test: (§1) Drug uptake assessed as OATP2B1 high affinity site (unknown origin)-mediated drug uptake; assay type: ADME, Homo sapiens
[18] = substrate: C[C@]12CC[C@@H]3c4ccc(OS(=O)(=O)O)cc4CC[C@H]3[C@@H]1CCC2=O; test: as §1; assay type: ADME, Homo sapiens
[19] = substrate: CC[C@H](C)C(=O)O[C@H]1C[C@H](O)C=C2C=C[C@H](C)[C@H](CC[C@@H](O)C[C@@H](O)CC(=O)O)[C@H]21; test: as §1; assay type: ADME, Homo sapiens
[20] = substrate: C[C@]12CC[C@@H]3c4ccc(OS(=O)(=O)O)cc4CC[C@H]3[C@@H]1CCC2=O; test: Substrate activity at human OATP2B1 low affinity site expressed in Xenopus laevis oocytes assessed as Km for transporter-mediated drug accumulation after 15 mins by Eadie-Hofstee plot method; assay type: ADME, cell-based
[21] = substrate: C[C@]12CC[C@@H]3c4ccc(OS(=O)(=O)O)cc4CC[C@H]3[C@@H]1CCC2=O; test: (§2) Drug uptake assessed as OATP2B1 low affinity site (unknown origin)-mediated drug uptake; assay type: ADME, Homo sapiens
[22] = substrate: CC[C@H](C)C(=O)O[C@H]1C[C@H](O)C=C2C=C[C@H](C)[C@H](CC[C@@H](O)C[C@@H](O)CC(=O)O)[C@H]21; test: as §2; assay type: ADME, Homo sapiens

T1 sequence (O94956 whole entry T392I/H618Q): as the sequence (O94956 whole entry T392I/H579Q) above, with Q579H, H618Q counted along it

`CCCCC[C@H](O)/C=C/[C@H]1[C@H](O)CC(=O)[C@@H]1C/C=C\CCCC(=O)O` [DINOPROSTONE] was tested, and the Drug uptake [1] was 97.4%, the Drug uptake [2] was 138% and the Drug uptake [3] was 45.3%. For the same molecule, the Drug uptake [4] was 0.461 µL.

For `CC(C)(C(=O)O)c1ccc(C(O)CCCN2CCC(C(O)(c3ccccc3)c3ccccc3)CC2)cc1` (stereo not given) [FEXOFENADINE], the Drug uptake [5] was 28.5%, the Drug uptake [6] was 0.056 µL and the Drug uptake [7] was 121%. The Drug uptake [8] was 147%.

Work on `CC[C@H](C)C(=O)O[C@H]1C[C@H](O)C=C2C=C[C@H](C)[C@H](CC[C@@H](O)C[C@@H](O)CC(=O)O)[C@H]21` [PRAVASTATIN] yielded a Drug uptake [9] of 0.196 µL, a Drug uptake [10] of 40% and a Drug uptake [11] of 0.2%. It also gave a Drug uptake [12] of 32.5%.

`CC(C)c1nc(N(C)S(C)(=O)=O)nc(-c2ccc(F)cc2)c1/C=C/[C@@H](O)C[C@@H](O)CC(=O)O` [ROSUVASTATIN] showed a Drug uptake [5] of 5.79%, a Drug uptake [6] of 2.951 µL and a Drug uptake [7] of 33.1%. The Drug uptake [8] was 39.8%.

`O=C(O)c1cc(/N=N/c2ccc(S(=O)(=O)Nc3ccccn3)cc2)ccc1O` [SULFASALAZINE] gave a Drug uptake [5] of 7.57%, a Drug uptake [6] of 1.934 µL and a Drug uptake [7] of 22.2%. For the same molecule, the Drug uptake [8] was 41%.

“Solute carrier organic anion transporter family member 2B1 (Homo sapiens; H579Q)” showed a Km [13] of 0.18 µM.

In the case of “Solute carrier organic anion transporter family member 2B1 (Homo sapiens; H618Q)”, the Km [14] is reported as 91.1 µM and the Km [15] is reported as 0.149 µM.

B1: Solute carrier organic anion transporter family member 2B1 (Homo sapiens) (protein)
chain: MGPRIGPAGEVPQVPDKETKATMGTENTPGGKASPDPQDVRPSVFHNIKLFVLCHSLLQLAQLMISGYLKSSISTVEKRFGLSSQTSGLLASFNEVGNTALIVFVSYFGSRVHRPRMIGYGAILVALAGLLMTLPHFISEPYRYDNTSPEDMPQDFKASLCLPTTSAPASAPSNGNCSSYTETQHLSVVGIMFVAQTLLGVGGVPIQPFGISYIDDFAHNSNSPLYLGILFAVTMMGPGLAFGLGSLMLRLYVDINQMPEGGISLTIKDPRWVGAWWLGFLIAAGAVALAAIPYFFFPKEMPKEKRELQFRRKVLAVTDSPARKGKDSPSKQSPGESTKKQDGLVQIAPNLTVIQFIKVFPRVLLQTLRHPIFLLVVLSQVCLSSMAAGMATFLPKFLERQFSITASYANLLIGCLSFPSVIVGIVVGGVLVKRLHLGPVGCGALCLLGMLLCLFFSLPLFFIGCSSHQIAGITHQTSAHPGLELSPSCMEACSCPLDGFNPVCDPSTRVEYITPCHAGCSSWVVQDALDNSQVFYTNCSCVVEGNPVLAGSCDSTCSHLVVPFLLLVSLGSALACLTHTPSFMLILRGVKKEDKTLAVGIQFMFLRILAWMPSPVIHGSAIDTTCVHWALSCGRRAVCRYYNNDLLRNRFIGLQFFFKTGSVICFALVLAVLRQQDKEARTKESRSSPAVEQQLLVSGPGKKPEDSRV
B1 was tested, and the Km [16] was 0.463 µM, the Km [17] was 1.73 µM and the Km [18] was 0.1 µM. The Km [19] was 6.25 µM, the Km [20] was 51.4 µM and the Km [21] was 29.9 µM. For the same molecule, the Km [22] was 225 µM.
